Assay [1] addresses T1, Gαq-Q209L (GαqΔ34-Q209L) (Mus musculus, UniProt P21279, Q209L).
T1 sequence (P21279 35-359 Q209L): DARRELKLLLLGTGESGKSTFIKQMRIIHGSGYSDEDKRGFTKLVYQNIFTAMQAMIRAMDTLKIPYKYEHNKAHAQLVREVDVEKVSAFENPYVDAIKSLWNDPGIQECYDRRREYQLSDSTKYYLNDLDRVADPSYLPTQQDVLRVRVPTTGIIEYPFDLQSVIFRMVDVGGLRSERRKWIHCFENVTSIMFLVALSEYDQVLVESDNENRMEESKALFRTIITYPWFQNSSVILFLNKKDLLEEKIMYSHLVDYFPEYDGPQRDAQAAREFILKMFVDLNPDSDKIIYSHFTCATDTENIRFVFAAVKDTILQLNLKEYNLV
In words: […]GTPγS filter-binding assay with purified protein preincubated with FR. It counts as biochemical.

The target of assay [2] is Gαq (Rattus norvegicus, UniProt P82471). The description is as above. The assay is classed as biochemical.
The target in assay [3] is T1, Gαq-Q209L (GαqΔ34-Q209L). In words: […]GTPγS radioligand filter binding.
In assay [4] the target is T2, Gαq (Rattus norvegicus, UniProt P82471).
T2 sequence (P82471 1-359): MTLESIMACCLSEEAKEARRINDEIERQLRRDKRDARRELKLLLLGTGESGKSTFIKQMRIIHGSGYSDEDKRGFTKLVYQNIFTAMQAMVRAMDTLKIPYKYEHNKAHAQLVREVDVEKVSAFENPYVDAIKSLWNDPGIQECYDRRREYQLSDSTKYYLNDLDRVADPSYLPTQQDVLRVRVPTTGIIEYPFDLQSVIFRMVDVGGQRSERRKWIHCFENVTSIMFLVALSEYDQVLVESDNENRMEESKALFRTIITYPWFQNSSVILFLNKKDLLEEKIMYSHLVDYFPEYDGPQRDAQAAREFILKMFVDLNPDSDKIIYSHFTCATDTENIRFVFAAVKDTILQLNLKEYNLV
In words: […]GTPγS radioligand filter binding.

SMILES strings stand for the structures. *1 amine or outer side, *2 acyl side, *3 side chain or, on linkers, in order; H or OH if unused. Where a SMILES comes first, the peptide text is derived from it. Bridges are numbered along the chain shown (N, C = ends). [ ]: non-standard residue; d: D form. The star is where a group is joined. Leu(3R-OH,Nα-propionyl) = CCC(=O)N[C@H](C(=O)*)[C@H](O)C(C)C; X1 = CC(C)[C@@H](O[*:3])[C@H](N[*:1])C(=O)[*:2]; NMeT = CN[C@H](C(=O)O)[C@@H](C)O; dPhLac = O=C(O)[C@H](O)Cc1ccccc1; NMeA = CN[C@@H](C)C(=O)O; NMeDha = C=C(NC)C(=O)O

With `C=C1C(=O)N[C@@H](C)C(=O)N(C)[C@@H](C)C(=O)N[C@@H]([C@H](OC(=O)[C@@H](NC(=O)CC)[C@H](O)C(C)C)C(C)C)C(=O)N(C)[C@@H]([C@@H](C)OC)C(=O)O[C@H](C(C)C)[C@H](NC(C)=O)C(=O)O[C@H](Cc2ccccc2)C(=O)N1C` [FR, FR900359] (Ac-[X1][dPhLac][NMeDha]A[NMeA][X1](Leu(3R-OH,Nα-propionyl))[NMeT](Me); ester 1-C), the 50% inhibitory concentration (IC50) on Gαq-Q209L (GαqΔ34-Q209L) [1] and at Gαq [2] was approximately 0.075 µM in each case.
For `Nc1nc2c(ncn2[C@@H]2O[C@H](COP(=O)(O)OP(=O)(O)OP(O)(O)=S)[C@@H](O)[C@H]2O)c(=O)[nH]1` [GTPγS], the “[35S]GTPγS radioligand filter binding” value on Gαq-Q209L (GαqΔ34-Q209L) [3] was “GTPγS binding of purified Gαq and Gαq-Q209L was measured using a filter-binding method”; on Gαq [4], “GTPγS binding of purified Gαq and Gαq-Q209L was measured using a filter-binding method”.

The values are drawn from paper PMC6445713 (Molecular cancer research : MCR, 2018).
